The results in this text go back to patent publication US10265383B2, “Treatment of radiation injury using ghrelin” (priority 2014, dated 2019).

Where no end group is shown, it is not given here. The star is where a group is joined. Octanoyl = CCCCCCCC(=O)*

The test system of one test is serum endotoxin. The experiment in a line: Serum endotoxin levels (LAL assay). It is filed as in vivo. The following applies: Day 7 after 10 Gy WBI; 20 nmol/rat for 6 days from 24 h. As to the method:
(§1) Animal model of whole body irradiation. Rats were exposed to whole body irradiation (WBI) of 10 Gray (Gy) using a Gammacell® 1000 Irradiator (Atomic Energy of Canada Ltd) [radiation source: Cesium-137 (^137Cs)] delivered at a dose rate of about 2.5 GY/min. The animals were sedated with intra-peritoneal pentobarbital (40 mg/kg BW) prior to irradiation. During radiation, the container rotated continuously in front of the radiation source for even exposure. The animals were then returned to their cages, and food and water were provided.
Blood and Tissue Collection after WBI. Rats exposed to 10 Gy WBI were treated with 20 nmol/rat human ghrelin once a day for 6 days starting at 24 h after radiation. At the 7th day, rats were euthanized, and blood, liver and the small intestine were removed under sterile conditions. The blood was allowed to clot and following centrifugation, the serum was transferred into pyrogenic free sterile tubes, and stored at −80° C. until further analysis. […]
Serum endotoxin levels. Bacterial endotoxin levels in the serum were determined by the endpoint Chromogenic Limulus Amebocyte Lysate (LAL) assay (QC-1000, Lonza, Walkervilles, Md. USA) and expressed in EU/ml. Samples were analyzed according to manufacturer's instruction. Endotoxin levels which are ≥0.1EU/ml can be measured using this assay.

The subject of a further test is Bcl-xl. The experiment in a line: Western blot of jejunal Bcl-xl protein. The following applies: jejunum, Day 7 after 10 Gy WBI. It is filed as in vivo, rat. As to the method: as §1
(§2) Blood and Tissue Collection after WBI. Rats exposed to 10 Gy WBI were treated with 20 nmol/rat human ghrelin once a day for 6 days starting at 24 h after radiation. At the 7th day, rats were euthanized, and blood, liver and the small intestine were removed under sterile conditions. […]
(§3) Western blot analysis. […] After overnight incubation with the primary antibodies at 4° C., the membranes were washed with TBS-T Immunoreactive bands were detected using HRP-linked secondary antibody (Southern Biotech, Birmingham, Ala.) and the Enhanced Chemiluminescence (ECL) Western blot detection kit (Amersham, Piscataway, N.J.). The immunoblots were exposed to X-ray film and analyzed with the NIH Image J analysis system. […]
On the technique in general: In western blotting, separated proteins are transferred to a membrane and probed.

Test [1] is described as follows: Percent body weight change after WBI. The following applies: 10 Gy WBI rats; treatment starting at 24 h; 30 day period. The test is classed as in vivo, rat. As to the method: as §1
Survival study. To assess the survival benefits of human ghrelin, animals were exposed to 10 Gy WBI and treated with human ghrelin (20 nmol/rat) subcutaneously once a day, with the first dose given either at 24 h or 48 h after WBI, for 6 days and observed for 30 days, and the survival recorded. The surviving animals beyond 30 days were then euthanized. Rats in the survival study were monitored twice daily and weighed once a day during the 30 day survival period. Net weight change was calculated as: % Weight Change ((weight at each day−weight at day 0)/weight at day 0)×100.

A further test concerns serum albumin. The experiment in a line: Serum albumin level after WBI. The test is classed as in vivo, rat. The conditions noted are these: Day 7 after 10 Gy WBI; WBI decreased it by 19%. As to the method:
as §1
Blood and Tissue Collection after WBI. Rats exposed to 10 Gy WBI were treated with 20 nmol/rat human ghrelin once a day for 6 days starting at 24 h after radiation. At the 7th day, rats were euthanized, and blood, liver and the small intestine were removed under sterile conditions. The blood was allowed to clot and following centrifugation, the serum was transferred into pyrogenic free sterile tubes, and stored at −80° C. until further analysis. Liver (0.25 g) was snap-frozen in liquid nitrogen and stored at −80° C. for subsequent bacterial translocation analysis. […]
Serum glucose and albumin levels. Serum levels of glucose and albumin were determined using Liquid Glucose Hexokinase Reagent Set and Albumin Reagent Set (Pointe Scientific, Inc.) respectively according to manufacturer's instructions.

Another test relates to Bax. The experiment in a line: Western blot of jejunal Bax protein. It is filed as in vivo, rat. The conditions noted are these: jejunum, Day 7 after 10 Gy WBI; slightly elevated in vehicle. Here is the method: as §1, §2, §3
For a further test, the system named is CD73. The experiment in a line: Jejunal CD73 mRNA expression by real time PCR. The test is classed as in vivo, rat. The following applies: jejunum, Day 7 after 10 Gy WBI; vehicle decreased by 62%. As to the method:
as §1
Blood and Tissue Collection after WBI. Rats exposed to 10 Gy WBI were treated with 20 nmol/rat human ghrelin once a day for 6 days starting at 24 h after radiation. At the 7th day, rats were euthanized, and blood, liver and the small intestine were removed under sterile conditions. The blood was allowed to clot and following centrifugation, the serum was transferred into pyrogenic free sterile tubes, and stored at −80° C. until further analysis. Liver (0.25 g) was snap-frozen in liquid nitrogen and stored at −80° C. for subsequent bacterial translocation analysis. Small intestine, 10-15 cm of the ileum, was harvested for gut permeability studies, 10 cm of jejunum was collected for histopathology, and the remaining 10 cm jejunal segment each was collected for RNA and protein analyses.
Total RNA extraction and real time PCR. […]
(In general: Quantitative PCR measures a nucleic acid by following its amplification.)

Take “ghrelin (GSS(Octanoyl)FLSPEHQRVQQRKESKKPPAKLQPR; listed as Homo sapiens) [human ghrelin]”: in the test on serum endotoxin, the “serum endotoxin levels, decrease” value amounted to 42%. The “Bcl-xl protein levels, restored by” value in the test on Bcl-xl (vehicle 34% reduction) was 75%. In addition, the “Bcl-xl/Bax ratio, increase from the vehicle” value with Bcl-xl (vehicle 54% reduction) turned out to be 55%. Besides, in test [1], the “percent body weight change” value was “consistent increase in the body weight”. In addition, the serum albumin levels entry in the test with serum albumin is listed as “restored to sham values”. Moreover, in the test on Bax, the Bax protein entry is listed as “remain same as sham”. In addition, the “CD73 mRNA expression, restored by” value in the test on CD73 is on record as 70%.
